For one assay, the target named is T1, KRAS G12D (Homo sapiens, UniProt P01116, G12D).
T1 construct: Human His-tagged KRAS4B (1-169) G12D, G12V and G12C were custom synthesized; 6His (pET-28a(+)-TEV vector) (N); host or cells: E. coli BL21 star (DE3)
The experiment in a line: Isothermal titration calorimetry, KRAS G12D. The class given is binding. To be noted: ITC. As to the method:
All isothermal titration calorimetry (ITC) experiments were carried out at 25°C on a MicroCal PEAQ ITC Automated (Malvern). […] The final ITC buffer in the syringe and the cell was 25 mmol/L Tris HCl (pH 8.0), 100 mmol/L NaCl, 0.1 mmol/L DTT, 5% glycerol, 1% NP40, 5 mmol/L MgCl2, and 5% DMSO. ITC titration experiments were carried out with 19 injections, 2 µL per injection, and 150 seconds spacing between each injection. Reference cell power was set to 5 µcal/second and stirring speed was 750 rpm. Data were analyzed using a one site binding model with the Malvern analysis software. All ITC experiments were performed at the biophysical facility at the Institute for Structural Biology, Drug Discovery and Development (ISB3D) at Virginia Commonwealth University (Richmond, VA) and the Massey Cancer Center.
Expression and purification of RAS proteins: Human His-tagged KRAS4B (1-169) G12D, G12V and G12C were custom synthesized and cloned into pET-28a(+)-TEV vector to generate pET-28a(+)-6His-KRAS (1-169) plasmids by GenScript USA Inc., Piscataway, NJ. The proteins were expressed and purified as described below. The full length biotinylated human KRAS4B G12D (His6-MBP-tev-Avi-Hs.KRAS4b G12D (2-188) protein was obtained from Dr Dominic Esposito and Dr. William Gillette from the NCI RAS Initiative at the Frederick National Laboratory. Avi-KRAS4b (2-188) G12D was cloned, expression and purified as described previously (1,2).
Expression and purification of KRAS proteins: BL21 star (DE3) competent cells were transformed with pET-28a(+)-6His-KRAS (1-169) plasmids from GenScript, and the resulting colonies were picked under kanamycin selection. The colonies were grown in LB broth and induced with 0.5mM IPTG for 4 hours when OD reached 0.6-0.8. Bacteria pellets were lysed in 25mM Tris HCL (pH7.8) buffer containing 300mM NaCl, 5mM MgCl2, 10mM Imidazole, 5% Glycerol and 3mM β-mercaptoethanol. Membrane filter-cleared lysate supernatants were incubated with HisPur Ni-NTA resin (Thermo scientific) in an oscillating platform at 4°C for 50 minutes. Econo disposable column (Bio-Rad) was used for washing the beads 3 times with 25mM Tris HCl (pH7.8), 300mM NaCl, 5mM MgCl2, 5% Glycerol buffer with 10mM, 20mM and 30mM Imidazole, respectively. Elution was carried with 25mM Tris HCl (pH7.8), 300mM NaCl, 5mM MgCl2, 5% Glycerol and 500mM Imidazole buffer. After confirming the eluted fraction purity on SDS-PAGE gel, proteins fractions were further purified using HiLoad 16/600 superdex 75 PG column in AKTA system. Protein was eluted in 25mM Tris HCL (pH7.8), 150mM NaCl, 5mM MgCl2 and 0.5mM DTT. KRAS protein aliquots were stored in -80°C.
GCP and NH-GDP nucleotide exchange for ITC: KRAS G12D protein in 25 mM Tris HCL (pH 8.0), 1 mM Calcium Chloride Dihydrate and 200 mM (NH4)2SO4 buffer was added to alkaline phosphatase beads (Sigma, USA) (2U per mg of KRAS) and to non-hydrolysable nucleotide analogs, GCP (β,γ-Methyleneguanosine 5′-triphosphate sodium salt, Sigma, USA) or GDP-NH (Guanosine 5′-[β-thio]diphosphate trilithium salt, Sigma, USA) in molar ratio of 10:1 (Nucleotide:KRAS). The reaction mixture was incubated with gentle rotation for 14-18 hrs at 4 °C. After incubation, the mixture was centrifuged at 1500 g, 4°C to remove the alkaline phosphatase beads. MgCl2 (20 mM) and an additional amount of GCP or NH-GDP in molar ratio of 5:1 (Nucleotide:KRAS) were added, and incubated at room temperature for 1 hr. After incubation, nucleotide exchanged protein was desalted and buffer exchanged at 4 °C using PD-10 column (Catalog # 17085101, GE Healthcare, USA), into a final buffer containing 25 mM Tris HCL (pH 7.5), 150 mM NaCl, 5 mM MgCl2 and 0.5 mM DTT. Buffer exchanged protein was concentrated using Amicon ultra centrifugal filter-10K cut off (Catalog # UFC501024, MilliporeSigma, USA). The protein concentration was measured using Pierce Rapid GOLD BCA Protein Assay Kit (Thermo Scientific, USA) and aliquots were stored in -80°C.

The test system of a further assay is P-MEK. The experiment in a line: Western blot of P-MEK in cultured cells. It is filed as cell-based, human. To be noted: for increase of P-MEK / P-MEK levels: 2 hours. From the text: To prepare whole-cell lysates, cells were washed twice with cold PBS and lysed in M-PER Mammalian Protein Extraction Reagent (product no. 78501, Thermo Fisher Scientific) supplemented with Pierce protease and phosphatase inhibitor cocktail (product no. A32961, Thermo Fisher Scientific). Tumor tissue samples were lysed in T-PER Tissue Protein Extraction Reagent (product no. 78510, Thermo Fisher Scientific) with above supplement. The automatic hand-operated OMNI-TIP Homogenizer (Omni International, Inc.) was used to homogenize the tumor tissues. Lysates from whole cells and tumor homogenates were then processed for SDS-PAGE Western blotting. The following antibodies were used: Phospho-MEK1/2 (S217/221; catalog no. 9154S), MEK1/2 (catalog no. 4694S), Phospho-AKT (S473; catalog no. 9271S), Phospho-AKT (T308; catalog no. 4056S), AKT (catalog no. 9272S), Phospho-Erk1/2 (catalog no. 4370S), Erk1/2 (catalog no. 4695S), Phospho-S6 Ribosomal Protein (Ser 235/236; catalog no. 4858S), S6 Ribosomal Protein (catalog no.2217S), cleaved-CASP-3 (catalog no. 9664), cleaved-PARP (catalog no. 9541) from Cell Signaling Technology; anti-β-ACTIN (catalog no A5441-.2ML from Sigma-Aldrich; KRAS (catalog no. OP24, from EMDMillipore), and RAF1 (catalog no. sc-7267, Santa Cruz Biotechnology), horseradish peroxidase–conjugated goat anti-GST antibody (catalog no. A190-121P from Bethyl Laboratories).

Structures are written as SMILES.

T1 sequence (P01116 1-169 isoform P01116-2 G12D): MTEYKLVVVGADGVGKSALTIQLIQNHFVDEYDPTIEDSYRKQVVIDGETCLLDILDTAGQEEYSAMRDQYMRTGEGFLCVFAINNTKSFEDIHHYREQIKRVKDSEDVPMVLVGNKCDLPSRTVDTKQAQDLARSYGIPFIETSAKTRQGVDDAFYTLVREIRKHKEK

As to `COC(=O)C1C2C3(C)C(=O)C=CC2(OC3=O)C2CCC3(CBr)CC12CC3=O` (centres unmarked) [KRB-456], the Kd was found to be 0.247 µM on KRAS G12D (KRAS G12D-NE (non-exchanged), 25°C); 0.479 µM at KRAS G12D (NH-GDP-loaded KRAS G12D); 0.341 µM on KRAS G12D (NH-GTP-loaded KRAS G12D). The “increase of P-MEK” value is on record as 1.4 fold in the assay on P-MEK (Panc1 cells, 1 µmol/L) and 1.1 fold in the assay with P-MEK (Panc1 cells, 3 µmol/L). Further, the P-MEK levels entry in the assay on P-MEK (Panc1 cells, 10 µmol/L) is reported as “significantly decreasing”; in the assay with P-MEK (Panc0203 cells, 0, 1, 3, 10 µmol/L, concentration-dependent starting at 1 µmol/L), “significantly decreased”. In addition, the “P-MEK levels, time course” value in the assay with P-MEK (Panc0203 and Panc1 cells, increase within 5 min, peak at 15 minutes, decrease from 30 minutes, significant decreases between 8 and 48 hours) is reported as “transiently increased”.

The record behind these values is paper PMC10754035 (Cancer Research Communications, 2023).
